Where two headings read alike, the source gives them in different places.
Key:
[1] = molecular target: T1, ATP-sensitive potassium channels (Cavia porcellus, UniProt A0A286XYR9); assay: Radioligand (Example 1) binding assay, guinea-pig cardiac ventricle membranes; conditions: for effect on specific binding of Example 1 (in words): guinea-pig cardiac membranes
Procedure: Membrane Preparation: Guinea-pig cardiac ventricles and bladder membranes were prepared by standard procedures, Gopalakrishnan, M., Johnson, D. E., Janis, R. A. & Triggle, D. J. (1991) Journal of Pharmacology and Experimental Therapeutics, 257, 1162-71; Russ, U., Metzger, F., Kickenweiz, E., Hambrock, A., Krippeit-Drews, P. & Quast, U. (1997) Br. J. Pharmacol., 122, 1119-1126. Briefly, ventricles and bladders were quickly removed from male guinea-pigs (Charles River) and placed in ice-cold binding buffer. Tissues were cleansed of adherent connective tissue, chopped into small pieces and disrupted using Tekmar polytron in about 15-vol./g tissue weight. Homogenates were centrifuged at 45,000×g and the membrane pellets were resuspended in the assay buffer. Membrane preparations from other tissues, cells, both clonal and transfected with KATP subunits, may also be used. Clonal cell lines or transfected cell lines can be cultured by standard tissue culture techniques. When cells were confluent, membrane preparations were made by removal of media followed by scraping the monolayer in ice-cold Tris HCl buffer (pH 7.2). The suspension was then centrifuged at 45,000×g for 20 minutes and the pellet was resuspended in the assay buffer for use in radioligand assays.
Binding Assay: A radioligand of formula (I) such as 9-(4-fluoro-3-[I^125]iodophenyl)-2,3,5,9-tetrahydro-4H-pyrano[3,4-b]thieno[2,3-e]pyridin-8(7H)-one 1,1-dioxide (Example 1) (specific activity, 2000 Ci/mmol) was stored in ethanol. Prior to use, the desired amount of Example 1 was dried under a gentle stream of nitrogen gas and reconstituted in the assay buffer (usually prepared as a 10×stock). Guinea-pig ventricle membranes were incubated in a total 0.25 mL volume of HEPES buffer (composition, NaCl, 139 mM; KCl, 5 mM, MgCl2, 25 mM; CaCl2, 1.25 mM; pH 7.4 at 25° C.) containing an ATP regenerating system (creatine phosphate (40 mM), creatine phosphokinase (100 enzyme units) and varying concentrations of Na2ATP (0.01-3 mM) with Example 1 and varying concentrations of test compounds at 37° C. for 90 minutes. These conditions have been previously employed by Gopalakrishnan et al., 1991 (see above), hereby incorporated by reference, wherein the levels of ATP were consistently maintained since free ADP is converted back to ATP by creatine phosphate and creatine is regenerated to creatine phosphate by the enzyme creatine phosphokinase.
Saturation binding of Example 1 was performed with varying concentrations of Example 1. For inhibition assays, samples were incubated in a final volume of 0.25 mL of buffer containing 1-2 nM of Example 1 with varying concentrations of the test compounds. Incubations were terminated by rapid vacuum filtration through GF/B filters followed by rinsing twice with ice-cold 50 mM Tris HCl (pH 7.4). Radioactivity bound to the filters was assessed by gamma counting. Specific radioligand binding is defined by the inclusion of 10 μM of unlabeled Example 1 and was obtained by subtracting the nonspecific binding from the total binding to membranes and filters.
Membrane protein concentration was determined by the method of Lowry et al Gopalakrishnan, M., Triggle, D. J., Rutledge, A., Kwon, Y. W., Bauer, J. A. & Fung, H. L. (1991) Am. J. Physiol., 261, H1979-H1987; Janis, R. A., Maurer, S. C., Sarmiento, J. G., Bolger, G. T. & Triggle, D. J. (1982). Eur. J. Pharmacol., 82, 191-4.
The equilibrium dissociation constant (KD) and maximal density of binding sites (Bmax) of Example 1 was determined by non-linear regression of the saturation binding isotherm. The Ki values were calculated from the concentration inhibition curve by the method of Cheng and Prusoff (1973) Biochem.Pharmacol.,22, 3099-3108. Data is presented as means±S.E.M.

[2] = molecular target: T1, ATP-sensitive potassium channels; assay: as above; conditions: without ATP regenerating system
[3] = molecular target: ATP-sensitive potassium channel; assay: Comparison of the profile of the novel radioligand with [^3H]P1075 in membrane preparations; type: binding; conditions: radioligand comparison table; read-out: Affinity
[4] = cardiac membranes, in the presence of the ATP regenerating system, Cheng-Prusoff, read-out: Ki value for displacement of specific Example 1 binding
[5] = quantity not given, Ki per method, mean±S.E.M., read-out: displacement of specific Example 1 binding by KATP channel blockers

T1 sequence (A0A286XYR9 1-1546): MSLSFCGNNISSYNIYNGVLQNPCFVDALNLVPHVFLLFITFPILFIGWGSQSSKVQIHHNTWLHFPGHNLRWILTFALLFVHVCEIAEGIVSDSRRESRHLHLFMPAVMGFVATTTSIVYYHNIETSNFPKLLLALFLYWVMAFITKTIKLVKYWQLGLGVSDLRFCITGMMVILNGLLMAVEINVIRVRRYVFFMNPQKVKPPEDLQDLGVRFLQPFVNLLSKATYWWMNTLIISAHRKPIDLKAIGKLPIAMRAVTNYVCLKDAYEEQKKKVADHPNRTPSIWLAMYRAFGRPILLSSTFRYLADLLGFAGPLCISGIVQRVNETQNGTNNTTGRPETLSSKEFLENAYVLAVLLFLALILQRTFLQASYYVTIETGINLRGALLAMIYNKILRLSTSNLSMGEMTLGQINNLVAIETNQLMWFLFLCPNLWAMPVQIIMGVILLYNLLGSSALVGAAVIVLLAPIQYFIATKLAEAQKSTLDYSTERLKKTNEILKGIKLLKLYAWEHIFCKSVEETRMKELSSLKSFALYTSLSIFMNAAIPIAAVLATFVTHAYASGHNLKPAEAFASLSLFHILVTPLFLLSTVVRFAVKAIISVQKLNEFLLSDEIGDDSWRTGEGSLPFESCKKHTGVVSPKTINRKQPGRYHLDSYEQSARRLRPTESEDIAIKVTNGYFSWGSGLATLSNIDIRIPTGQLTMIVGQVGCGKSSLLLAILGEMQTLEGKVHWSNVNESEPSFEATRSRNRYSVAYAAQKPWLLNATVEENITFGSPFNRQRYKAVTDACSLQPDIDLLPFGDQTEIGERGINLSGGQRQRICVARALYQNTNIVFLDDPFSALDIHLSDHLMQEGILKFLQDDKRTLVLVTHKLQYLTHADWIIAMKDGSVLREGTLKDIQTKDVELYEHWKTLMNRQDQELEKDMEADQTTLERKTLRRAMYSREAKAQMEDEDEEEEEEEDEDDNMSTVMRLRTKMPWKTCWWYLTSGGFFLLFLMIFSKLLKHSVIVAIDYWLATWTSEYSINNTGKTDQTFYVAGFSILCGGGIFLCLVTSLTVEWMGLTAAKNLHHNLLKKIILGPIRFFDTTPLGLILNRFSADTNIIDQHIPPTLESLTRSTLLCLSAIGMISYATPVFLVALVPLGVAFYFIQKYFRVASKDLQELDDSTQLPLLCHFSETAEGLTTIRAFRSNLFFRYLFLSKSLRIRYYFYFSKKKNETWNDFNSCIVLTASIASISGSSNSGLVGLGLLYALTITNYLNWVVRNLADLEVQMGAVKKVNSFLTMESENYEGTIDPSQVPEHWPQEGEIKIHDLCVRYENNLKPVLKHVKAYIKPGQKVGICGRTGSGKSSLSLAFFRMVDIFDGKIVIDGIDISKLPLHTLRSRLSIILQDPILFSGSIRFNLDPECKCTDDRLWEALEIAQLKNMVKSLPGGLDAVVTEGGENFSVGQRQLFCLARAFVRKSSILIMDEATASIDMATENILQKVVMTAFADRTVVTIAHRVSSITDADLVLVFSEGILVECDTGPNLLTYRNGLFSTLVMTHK

## CC(N/C(=N\C#N)Nc1ccncc1)C(C)(C)C (stereo not drawn) [pinacidil]
[1]
  effect on specific binding of Example 1 (in words): displaced

## CCOc1ccccc1N/C(=C\[N+](=O)[O-])NC(C)C(C)(C)C (stereo not drawn) [Bay X 9228]
[1]
  effect on specific binding of Example 1 (in words): displaced

## O=C1CCCC2=C1[C@H](c1ccc(F)c(Br)c1)C1=C(CCS1(=O)=O)N2 [Example A-278637]
[1]
  effect on specific binding of Example 1 (in words): displaced

## COC(=O)C1=C(C)NC(C)=C(C(=O)OC(C)C)C1c1cccc2nonc12 (stereo not drawn) [isradipine]
[1]
  effect on specific binding of Example 1 (in words): unaffected

## O=C1COCC2=C1C(c1ccc(F)c([125I])c1)C1=C(CCS1(=O)=O)N2 (stereo not drawn) [Example 1, 9-(4-fluoro-3-[I^125]iodophenyl)-2,3,5,9-tetrahydro-4H-pyrano[3,4-b]thieno[2,3-e]pyridin-8(7H)-one 1,1-dioxide]
[2]
  specific binding in the presence of just ATP alone: no specific binding was detected
[1]; guinea-pig cardiac ventricle membranes, saturation binding, n=3
  maximum binding capacity (Bmax): 107.7±12.7 femtomol/mg protein

## CC1(C)Oc2ccc(C#N)cc2C(N2CCCC2=O)C1O (stereo not drawn) [cromakalim]
[1]
  effect on specific binding of Example 1 (in words): displaced

## O=C1COCC2=C1C(c1ccc(F)c(I)c1)C1=C(CCS1(=O)=O)N2 (stereo not drawn) [Example 1, 9-(4-fluoro-3-[I^125]iodophenyl)-2,3,5,9-tetrahydro-4H-pyrano[3,4-b]thieno[2,3-e]pyridin-8(7H)-one 1,1-dioxide]
[3]
  Kd: 5 nM
[1]; [4]
  Ki: 5.8 nM
[1]; guinea-pig cardiac ventricle membranes, single set of saturable sites, n=3, mean±S.E.M., read-out: KD value (equilibrium dissociation constant), saturation binding
  Kd: 5.83 ± 0.77 nM

## Cc1cnc(C(=O)NCCc2ccc(S(=O)(=O)NC(=O)NC3CCCCC3)cc2)cn1 [glipizide]
[1]; [5]
  Ki: 4500 ± 400 nM

## CC1=NS(=O)(=O)c2cc(Cl)ccc2N1 [diazoxide]
[1]; cardiac membranes, rank order potency, read-out: Ki value for displacement of Example 1 binding
  Ki: 44800 nM

## COc1ccc(Cl)cc1C(=O)NCCc1ccc(S(=O)(=O)NC(=O)NC2CCCCC2)cc1 [glyburide]
[1]; [5]
  Ki: 47.6 ± 9.4 nM

## CCC(C)(C)N=C(NC#N)Nc1cccnc1 [Example P1075]
[1]
  effect on specific binding of Example 1 (in words): displaced

## O=C1COCC2=C1C(c1ccc(F)c(I)c1)C1=C(CCS1(=O)=O)N2 (stereo not drawn) [Unlabeled Example 1, 9-(4-fluoro-3-iodophenyl)-2,3,5,9-tetrahydro-4H-pyrano[3,4-b]thieno[2,3-e]pyridin-8(7H)-one 1,1-dioxide]
[1]; [4]
  Ki: 5.8 nM

From patent US6632418B2, “Radioligands and their use for identifying potassium channel modulators” (Abbott Laboratories, priority 2001, dated 2003)
